The term IC50 denotes the point on the concentration scale where inhibition reaches its midpoint.

T1 sequence (Q9UM73 19-1620): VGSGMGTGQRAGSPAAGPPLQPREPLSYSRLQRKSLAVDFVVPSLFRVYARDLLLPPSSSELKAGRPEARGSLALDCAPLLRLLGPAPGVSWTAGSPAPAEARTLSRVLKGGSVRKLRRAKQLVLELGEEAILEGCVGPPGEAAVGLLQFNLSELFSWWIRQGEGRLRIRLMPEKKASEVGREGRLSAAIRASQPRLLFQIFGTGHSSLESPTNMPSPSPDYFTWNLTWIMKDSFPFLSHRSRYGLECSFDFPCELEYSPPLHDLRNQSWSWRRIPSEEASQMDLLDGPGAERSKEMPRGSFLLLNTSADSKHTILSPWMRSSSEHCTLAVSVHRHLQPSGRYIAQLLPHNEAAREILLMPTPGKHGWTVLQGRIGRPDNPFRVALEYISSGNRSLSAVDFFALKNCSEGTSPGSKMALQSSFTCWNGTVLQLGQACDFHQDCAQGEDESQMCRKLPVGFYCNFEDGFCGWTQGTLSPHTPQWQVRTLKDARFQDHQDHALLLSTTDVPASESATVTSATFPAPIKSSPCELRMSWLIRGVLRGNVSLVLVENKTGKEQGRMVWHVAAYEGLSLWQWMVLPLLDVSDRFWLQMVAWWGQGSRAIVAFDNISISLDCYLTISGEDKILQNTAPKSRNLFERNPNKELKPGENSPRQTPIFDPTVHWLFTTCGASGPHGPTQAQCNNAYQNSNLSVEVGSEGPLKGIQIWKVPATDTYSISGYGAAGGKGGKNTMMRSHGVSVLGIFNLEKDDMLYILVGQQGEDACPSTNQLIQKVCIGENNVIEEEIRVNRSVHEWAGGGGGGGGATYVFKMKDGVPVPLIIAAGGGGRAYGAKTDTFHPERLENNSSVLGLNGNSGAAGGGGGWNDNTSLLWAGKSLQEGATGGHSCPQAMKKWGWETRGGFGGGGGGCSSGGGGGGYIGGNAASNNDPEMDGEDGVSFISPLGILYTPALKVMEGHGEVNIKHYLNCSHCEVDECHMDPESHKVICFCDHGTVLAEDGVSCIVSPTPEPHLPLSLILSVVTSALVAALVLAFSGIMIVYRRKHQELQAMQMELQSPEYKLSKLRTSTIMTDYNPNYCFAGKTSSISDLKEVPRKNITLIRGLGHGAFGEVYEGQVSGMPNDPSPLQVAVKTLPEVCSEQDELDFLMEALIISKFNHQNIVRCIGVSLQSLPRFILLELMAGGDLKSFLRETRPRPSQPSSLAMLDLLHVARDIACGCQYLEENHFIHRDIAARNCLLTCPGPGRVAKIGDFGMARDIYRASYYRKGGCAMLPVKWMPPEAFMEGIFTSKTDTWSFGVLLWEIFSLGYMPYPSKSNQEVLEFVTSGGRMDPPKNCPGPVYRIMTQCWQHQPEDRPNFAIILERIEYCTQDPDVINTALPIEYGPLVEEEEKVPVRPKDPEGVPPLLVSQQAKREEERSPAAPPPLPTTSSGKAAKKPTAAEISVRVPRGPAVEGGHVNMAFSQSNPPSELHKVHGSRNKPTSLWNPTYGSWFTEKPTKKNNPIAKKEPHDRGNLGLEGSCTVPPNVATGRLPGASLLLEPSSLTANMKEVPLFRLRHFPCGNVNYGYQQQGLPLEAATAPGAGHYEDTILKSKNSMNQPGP

This assay has as its target T1, ALK (Homo sapiens, UniProt Q9UM73).
T1 construct: Kinases are expressed as either kinase domains or full length constructs fused to glutathione S-transferase (GST) or polyHistidine tagged fusion proteins; made in house; host or cells: E. coli or Baculovirus-High Five (not specified which for ALK)
Put plainly: inhibitory potency against ALK (kinase inhibition assay). Type of assay: biochemical. From the text:
More specifically, the compounds described herein are screened for kinase inhibition activity as follows. Kinases suitable for use in the following protocol include, but are not limited to: ALK, Jak2, b-Raf, c-Met, Tie-2, FLT3, Abl, Lck, Lyn, Src, Fyn, Syk, Zap-70, Itk, Tec, Btk, EGFR, ErbB2, Kdr, FLT1, Tek, InsR, and AKT.
Kinases are expressed as either kinase domains or full length constructs fused to glutathione S-transferase (GST) or polyHistidine tagged fusion proteins in either E. coli or Baculovirus-High Five expression systems. They are purified to near homogeneity by affinity chromatography as previously described (Lehr et al., 1996; Gish et al., 1995). In some instances, kinases are co-expressed or mixed with purified or partially purified regulatory polypeptides prior to measurement of activity.
Kinase activity and inhibition can be measured by established protocols (see e.g., Braunwalder et al., 1996). In such cases, the transfer of ^33PO4 from ATP to the synthetic substrates poly(Glu, Tyr) 4:1 or poly(Arg, Ser) 3:1 attached to the bioactive surface of microtiter plates is taken as a measure of enzyme activity. After an incubation period, the amount of phosphate transferred is measured by first washing the plate with 0.5% phosphoric acid, adding liquid scintillant, and then counting in a liquid scintillation detector. The IC50 is determined by the concentration of compound that causes a 50% reduction in the amount of ^33P incorporated onto the substrate bound to the plate.
For example, in one method, compounds can be tested for their ability to inhibit kinase activity of baculovirus-expressed ALK using a modification of the ELISA protocol reported for trkA in Angeles, T. S. et al., Anal. Biochem. 1996, 236, 49-55, which is incorporated herein by reference. Phosphorylation of the substrate, phopholipase C-gamma (PLC- ? ) generated as a fusion protein with glutathione-S-transferase (GST) as reported in rotin, D. et al., EMBO J. 1992, 11, 559-567, which is incorporated by reference, can be detected with europium-labeled anti-phosphotyrosine antibody and measured by time-resolved fluorescence (TRF). […] Detection of the phosphorylated product can be performed by adding 100 ? L/well of Eu-N1 labeled PT66 antibody (Perkim Elmer #AD0041). Incubation at 37 degrees C. then proceeds for one hour, followed by addition of 100 ? L enhancement solution (for example Wallac #1244-105). The plate is gently agitated and after thirty minutes, the fluorescence of the resulting solution can be measured (for example using EnVision 2100 (or 2102) multilabel plate reader from Perkin Elmer).
Data analysis can then be performed. IC50 values can be calculated by plotting percent inhibition versus log10 of concentration of compound.
The inhibition of ALK tyrosine kinase activity can also be measured using the recombinant kinase domain of the ALK in analogy to VEDG-R kinase assay described in J. Wood et al., Cancer Res 2000, 60, 2178-2189. In vitro enzyme assays using GST-ALK protein tyrosine kinase can be performed in 96-well plate as a filter binding assay in 20 mMTris.HCl, pH 7.5, 3 mM MgCl2, 10 mM MnCl2, […], 0.1 ? Ci/assay (=30 ? L) [ ? -^33P]-ATP, 2 ? M ATP, 3 ? g/mL poly (Glu, tyr 4:1) Poly-EY (sigma P-0275), 1% DMSO, 25 ng ALK enzyme. Assays can be incubated for 10 min, at ambient temperature. Reactions can be terminated by adding 50 ? L of 125 mM EDTA, and the reaction mixture can be transferred onto a MAIP Multiscreen plate (Millipore, Bedford, Mass.) previously wet with methanol, and rehydrated for 5 minutes with water. Following washing (0.5% H3PO4), plates can be counted in a liquid scintillation counter. IC50 values are calculated by linear regression analysis of the percentage inhibition.
`COc1cc(P(C)(C)=O)ccc1Nc1ncc2[nH]c(=O)n(-c3ccccc3S(=O)(=O)C(C)C)c2n1` [Example 29, 2-{[4-(dimethylphosphoryl)-2-methoxyphenyl]amino}-9-[2-(propan-2-ylsulfonyl)phenyl]-7,9-dihydro-8H-purin-8-one]: the IC50 is over 10 nM.
With `COc1cc(P2(=O)CCNCC2)ccc1Nc1nccc(Nc2ccccc2S(=O)(=O)C(C)C)n1` [Example 30, N^2-[2-methoxy-4-(4-oxido-1,4-azaphosphinan-4-yl)phenyl]-N^4-[2-(propan-2-ylsulfonyl)phenyl]pyrimidine-2,4-diamine] the figure was 2 to 10 nM; with `COc1cc(P(C)(C)=O)ccc1Nc1nc(Nc2ccccc2S(=O)(=O)C(C)C)c2cc[nH]c2n1` [Example 31, N^2-[4-(dimethylphosphoryl)-2-methoxyphenyl]-N^4-[2-(propan-2-ylsulfonyl)phenyl]-7H-pyrrolo[2,3-d]pyrimidine-2,4-diamine], under 2 nM.
In turn, `COc1nc(P(C)(C)=O)ccc1Nc1ncc(Cl)c(Nc2ccccc2S(=O)(=O)C(C)C)n1` [Example 32, 5-chloro-N^2-[6-(dimethylphosphoryl)-2-methoxypyridin-3-yl]-N^4-[2-(propan-2-ylsulfonyl)phenyl]pyrimidine-2,4-diamine] showed an IC50 of under 2 nM.
The compound `COc1nc(P(C)(C)=O)cnc1Nc1ncc(Cl)c(Nc2ccccc2S(=O)(=O)C(C)C)n1` [Example 33, 5-chloro-N^2-[5-(dimethylphosphoryl)-3-methoxypyrazin-2-yl]-N^4-[2-(propan-2-ylsulfonyl)phenyl]pyrimidine-2,4-diamine] displayed an IC50 of over 10 nM.

The record behind these values is patent US9273077B2, “Phosphorus derivatives as kinase inhibitors” (ARIAD Pharmaceuticals, Inc., priority 2008, dated 2016).
